In US20180325850A1 (The Regents of the University of Michigan, priority 2017, published 2018):

Assays:
Format in all cases: in vivo, rat
IR rats [1] = assay: Plasma biochemical assay of LDH and creatine kinase (MI injury biomarkers); settings: 24 h after VPA treatment
Description: To determine the possible protective effect of VPA after MI, MI rats were generated by ischemia reperfusion and VPA was administrated to the animals. […] Intra-peritoneal injection of 250 mg/kg VPA was conducted immediately after and 12 h after coronary ligation. Heart functional assays, MI assessment, and physiological assays were performed 24 h after VPA administration.

IR rats [2] = assay: Long-term (4-week) oral VPA treatment of IR rats, EF and FS; settings: oral VPA 250 mg/kg twice daily for 4 weeks, versus IR control animals
Description: In addition, long-term (4-week) treatment of VPA was performed to IR rats.

Foxm1 = assay: RNA-seq of whole hearts one day after IR
Description: Recent studies indicate that neonatal CMs proliferate much more potently than adult CMs and Foxm1 appears to be a key factor in regulating neonatal CM proliferation by controlling Igf1 and cell cycle genes (Ref. 44; incorporated by reference in its entirety). […] These genes are mostly proliferation related genes. Other potential targets include anti-oxidative, pro-fibrotic, and CM structural genes. Foxm1 has also been reported to work with YAP1 to activate proliferation genes (Ref. 46; incorporated by reference in its entirety).

[3] = system: MI rats generated by ischemia reperfusion; assay: Myocardial infarct size by triphenyltetrazolium chloride (TTC) staining; settings: two shots of VPA within 24 h of IR injury; versus saline controls
Description: Myocardial infarct size was determined by triphenyltetrazolium chloride (TTC) staining. The hearts were frozen rapidly and sliced into five 2 mm transverse sections. The sections were incubated at 37° C. with 1% TTC in phosphate buffer (pH 7.4) for 10 min, fixed in 10% formaldehyde solution, photographed and calculated using ImageJ software. The infarct size was expressed as a percentage of infarct volume versus left ventricle volume.

[4] = system: MI rats generated by ischemia reperfusion; assay: Echocardiography of heart function (EF, FS) after ischemia reperfusion MI
Description: 24 h post coronary ligation, a MI size of 33.59±3.54% of the left ventricle was induced in rats. […] Left ventricular internal diameter end diastole (LVIDd) and end systole (LVIDs) were measured perpendicularly to the long axis of the ventricle. EF and FS were calculated according to LVIDd and LVIDs.

[5] = IR rats, 250 mg/kg VPA intra-peritoneal immediately after and 12 h after coronary ligation, echocardiography at 24 h

CCCC(CCC)C(=O)O [VPA, valproic acid]
plasma LDH release (IR rats [1]): 63.07±23.83 U/L | plasma creatine kinase (CK) release (IR rats [1]): 158.31±43.53 U/L | effect on ventricular remodeling and pumping function (EF, FS) (IR rats [2]): protected the MI hearts from ventricular remodeling and weakening of the pumping function | Foxm1 expression, IR+VPA group versus no IR group (Foxm1): 8 fold | reduction of infarct size [3]: around 45% | fractional shortening (FS) [4, 5]: 33.21±4.46% | left ventricle ejection fraction (EF) [4, 5]: 60.60±6.18% | rescue of the functional loss caused by acute IR injury ([4]; VPA treatment within 12 h of IR injury, from EF and FS): roughly 50%
